Key:
[1] = molecular target: T1, Metabotropic glutamate receptor 4 (Homo sapiens, UniProt Q14833); test: Positive allosteric modulation of human mGluR4 expressed in CHO-K1 cells assessed as decrease in forskolin-induced intracellular cAMP accumulation after 1 hr by fluorescence assay relative to (-)-PHCC; assay type: functional, cell-based
[2] = molecular target: T1, Metabotropic glutamate receptor 4; test: Positive allosteric modulation of human mGluR4 expressed in CHO-K1 cells assessed as decrease in forskolin-induced intracellular cAMP accumulation after 1 hr by fluorescence assay; assay type: functional, cell-based
[3] = molecular target: T2, Alpha-2A adrenergic receptor (Homo sapiens) (UniProt P08913); test: Activity at adrenergic alpha 2A receptor at 10 uM
T2 sequence (whole entry): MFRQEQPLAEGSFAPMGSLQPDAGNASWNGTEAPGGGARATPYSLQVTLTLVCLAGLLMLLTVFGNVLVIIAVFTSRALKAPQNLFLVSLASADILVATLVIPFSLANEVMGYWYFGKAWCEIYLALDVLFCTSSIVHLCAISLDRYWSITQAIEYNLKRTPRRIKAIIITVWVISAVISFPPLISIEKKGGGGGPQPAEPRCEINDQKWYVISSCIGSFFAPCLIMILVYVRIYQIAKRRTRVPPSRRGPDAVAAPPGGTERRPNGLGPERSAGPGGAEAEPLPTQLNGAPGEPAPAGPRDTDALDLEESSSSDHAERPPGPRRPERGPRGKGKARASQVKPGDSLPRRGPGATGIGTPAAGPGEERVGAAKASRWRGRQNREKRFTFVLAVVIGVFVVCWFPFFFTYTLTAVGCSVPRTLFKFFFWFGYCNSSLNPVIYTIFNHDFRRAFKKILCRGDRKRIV

Cytochrome P450 2D6 = Cytochrome P450 2D6 (Homo sapiens, UniProt P10635); test: Inhibition of CYP2D6 up to 50 uM; assay type: ADME
[4] = Permeability from basolateral to apical side of human Caco-2 cells; assay type: ADME, cell-based; conditions: read-out: permeability
[5] = molecular target: Metabotropic glutamate receptor 4 (Rattus norvegicus, UniProt P31423); test: Positive allosteric modulation of rat mGluR4 expressed in CHO-K1 cells; assay type: cell-based
Rattus norvegicus [6] = test: Inhibition of haloperidol-induced catalepsy in po dosed rat administered 30 mins before haloperidol challenge; assay type: functional, organism-based
[7] = Plasma protein binding in rat; assay type: ADME, cell-free; conditions: read-out: PPB (converted)
Homo sapiens = species: Homo sapiens; test: Hepatic blood flow in human; assay type: ADME, organism-based, Liver
[8] = molecular target: T3, Metabotropic glutamate receptor 5 (Homo sapiens, UniProt P41594); test: Negative allosteric modulation of human mGluR5 expressed in CHO-K1 cells; assay type: cell-based
T3 sequence (P41594 whole entry): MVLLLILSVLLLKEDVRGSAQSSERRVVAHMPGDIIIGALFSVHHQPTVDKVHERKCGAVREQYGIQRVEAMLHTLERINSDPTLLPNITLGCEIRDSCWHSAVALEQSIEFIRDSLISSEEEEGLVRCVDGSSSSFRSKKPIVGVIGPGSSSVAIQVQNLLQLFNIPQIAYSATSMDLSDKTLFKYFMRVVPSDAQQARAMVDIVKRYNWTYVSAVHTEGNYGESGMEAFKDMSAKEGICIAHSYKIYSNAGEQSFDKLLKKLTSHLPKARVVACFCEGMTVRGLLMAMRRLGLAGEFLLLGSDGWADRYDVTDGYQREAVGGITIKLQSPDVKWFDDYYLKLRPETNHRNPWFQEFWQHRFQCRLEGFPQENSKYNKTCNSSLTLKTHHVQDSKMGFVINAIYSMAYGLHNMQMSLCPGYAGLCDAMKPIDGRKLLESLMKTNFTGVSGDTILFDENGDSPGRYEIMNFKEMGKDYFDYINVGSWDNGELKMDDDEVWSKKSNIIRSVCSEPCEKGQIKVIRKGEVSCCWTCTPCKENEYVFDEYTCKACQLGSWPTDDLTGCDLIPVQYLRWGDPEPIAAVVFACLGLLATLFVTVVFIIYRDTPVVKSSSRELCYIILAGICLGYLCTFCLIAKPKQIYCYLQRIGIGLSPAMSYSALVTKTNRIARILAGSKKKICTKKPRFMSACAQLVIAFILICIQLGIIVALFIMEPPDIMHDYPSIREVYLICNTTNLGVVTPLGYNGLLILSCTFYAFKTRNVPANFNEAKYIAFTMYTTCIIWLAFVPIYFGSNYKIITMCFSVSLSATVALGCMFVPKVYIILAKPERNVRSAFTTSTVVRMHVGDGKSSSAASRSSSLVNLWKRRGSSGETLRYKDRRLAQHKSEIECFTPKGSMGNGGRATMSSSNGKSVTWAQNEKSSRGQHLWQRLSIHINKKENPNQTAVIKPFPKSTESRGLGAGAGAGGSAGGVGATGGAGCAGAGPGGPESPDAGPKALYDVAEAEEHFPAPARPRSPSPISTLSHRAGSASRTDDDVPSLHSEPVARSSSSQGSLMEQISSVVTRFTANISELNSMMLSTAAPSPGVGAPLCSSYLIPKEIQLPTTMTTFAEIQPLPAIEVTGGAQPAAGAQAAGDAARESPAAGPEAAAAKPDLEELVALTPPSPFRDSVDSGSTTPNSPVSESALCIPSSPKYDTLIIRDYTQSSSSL

[9] = molecular target: T4, 5-hydroxytryptamine receptor 1A (Homo sapiens) (UniProt P08908); test: Activity at 5HT1A receptor at 10 uM
T4 sequence (whole entry): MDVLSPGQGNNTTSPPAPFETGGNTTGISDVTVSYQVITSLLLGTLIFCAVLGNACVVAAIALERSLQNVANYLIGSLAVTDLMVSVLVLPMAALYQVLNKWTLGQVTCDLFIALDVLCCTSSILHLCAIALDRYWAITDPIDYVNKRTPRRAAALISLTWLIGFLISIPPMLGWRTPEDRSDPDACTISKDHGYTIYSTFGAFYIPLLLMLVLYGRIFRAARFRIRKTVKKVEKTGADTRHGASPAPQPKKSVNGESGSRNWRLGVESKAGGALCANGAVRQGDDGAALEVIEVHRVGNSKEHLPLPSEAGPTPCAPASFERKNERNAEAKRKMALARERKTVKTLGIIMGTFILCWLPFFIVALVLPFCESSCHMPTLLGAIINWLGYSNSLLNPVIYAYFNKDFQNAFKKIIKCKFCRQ

[10] = Mean residence time in rat at 2 mg/kg, iv; assay type: ADME, organism-based; set-up: dose 2 mg/kg, route intravenous; conditions: in vivo, read-out: Time
[11] = Volume of distribution in rat at 2 mg/kg, iv; assay type: ADME, organism-based; set-up: dose 2 mg/kg, route intravenous; conditions: in vivo
[12] = molecular target: T1, Metabotropic glutamate receptor 4; test: Agonist activity at human mGluR4 expressed in CHO-K1 cells; assay type: functional, cell-based
Cytochrome P450 3A4 = Cytochrome P450 3A4 (Homo sapiens, UniProt P08684); test: Inhibition of CYP3A4 up to 50 uM; assay type: ADME
Chain of Cytochrome P450 3A4 (P08684 whole entry): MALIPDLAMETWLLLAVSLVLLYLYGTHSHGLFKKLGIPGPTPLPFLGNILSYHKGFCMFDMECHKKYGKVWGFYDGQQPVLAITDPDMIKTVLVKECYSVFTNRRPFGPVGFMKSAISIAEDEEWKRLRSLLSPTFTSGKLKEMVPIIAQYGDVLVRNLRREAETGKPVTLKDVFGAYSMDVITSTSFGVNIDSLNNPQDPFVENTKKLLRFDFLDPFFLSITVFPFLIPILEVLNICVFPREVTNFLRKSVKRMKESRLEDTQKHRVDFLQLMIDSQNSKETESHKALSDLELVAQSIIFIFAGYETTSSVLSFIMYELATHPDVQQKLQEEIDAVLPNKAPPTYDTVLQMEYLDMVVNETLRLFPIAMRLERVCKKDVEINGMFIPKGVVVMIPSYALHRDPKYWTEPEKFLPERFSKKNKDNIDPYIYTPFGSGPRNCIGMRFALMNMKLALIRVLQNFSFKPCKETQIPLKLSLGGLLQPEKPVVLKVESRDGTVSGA

[13] = Permeability from apical to basolateral side of human Caco-2 cells; assay type: ADME, cell-based; conditions: read-out: permeability
[14] = Ratio of drug level in brain to plasma in rat at 30 mg/kg, po measured at 30 mins post dose; assay type: ADME, organism-based; set-up: dose 30 mg/kg, route oral; conditions: read-out: BPR
[15] = molecular target: Metabotropic glutamate receptor 5 (Rattus norvegicus, UniProt P31424); test: Negative allosteric modulation of rat mGluR5 expressed in CHO-K1 cells; assay type: cell-based
Chain of Metabotropic glutamate receptor 5 (Rattus norvegicus, UniProt P31424) (P31424 whole entry): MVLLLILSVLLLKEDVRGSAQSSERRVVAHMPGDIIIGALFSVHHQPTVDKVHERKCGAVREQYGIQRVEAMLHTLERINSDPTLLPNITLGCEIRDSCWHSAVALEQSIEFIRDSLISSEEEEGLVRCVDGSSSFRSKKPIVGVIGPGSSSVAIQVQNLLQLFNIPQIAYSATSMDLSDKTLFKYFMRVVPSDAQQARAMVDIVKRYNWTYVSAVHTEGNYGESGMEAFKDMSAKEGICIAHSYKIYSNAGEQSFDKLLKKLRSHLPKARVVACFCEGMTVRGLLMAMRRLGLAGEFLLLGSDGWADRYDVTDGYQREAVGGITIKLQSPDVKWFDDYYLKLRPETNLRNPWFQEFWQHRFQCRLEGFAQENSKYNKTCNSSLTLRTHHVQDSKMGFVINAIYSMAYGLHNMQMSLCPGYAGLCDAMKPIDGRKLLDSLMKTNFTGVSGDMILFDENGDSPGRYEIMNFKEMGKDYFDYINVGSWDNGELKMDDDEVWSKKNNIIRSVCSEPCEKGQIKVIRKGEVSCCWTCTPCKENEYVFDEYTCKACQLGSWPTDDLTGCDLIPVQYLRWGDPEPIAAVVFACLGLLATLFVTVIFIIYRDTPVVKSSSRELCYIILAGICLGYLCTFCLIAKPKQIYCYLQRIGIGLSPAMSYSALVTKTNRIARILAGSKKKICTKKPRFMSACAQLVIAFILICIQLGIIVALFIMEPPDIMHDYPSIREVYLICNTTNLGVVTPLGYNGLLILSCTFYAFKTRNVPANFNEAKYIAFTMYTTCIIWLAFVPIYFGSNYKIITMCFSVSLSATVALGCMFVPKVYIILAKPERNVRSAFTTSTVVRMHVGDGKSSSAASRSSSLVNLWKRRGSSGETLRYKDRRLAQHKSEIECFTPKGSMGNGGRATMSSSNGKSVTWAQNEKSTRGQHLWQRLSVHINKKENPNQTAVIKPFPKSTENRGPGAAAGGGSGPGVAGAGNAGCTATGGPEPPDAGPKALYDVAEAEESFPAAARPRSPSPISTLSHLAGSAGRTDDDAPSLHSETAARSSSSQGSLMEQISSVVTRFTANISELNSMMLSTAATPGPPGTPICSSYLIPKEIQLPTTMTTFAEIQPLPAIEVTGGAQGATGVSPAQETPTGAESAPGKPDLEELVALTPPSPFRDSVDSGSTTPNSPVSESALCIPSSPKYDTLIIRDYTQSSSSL

[16] = Metabolic stability in rat microsomes; assay type: ADME, Microsome
[17] = molecular target: T3, Metabotropic glutamate receptor 5; test: Agonist activity at human mGluR5 expressed in CHO-K1 cells in absence of glutamate; assay type: functional, cell-based
[18] = molecular target: Adenosine receptor A2a (Homo sapiens) (UniProt P29274); test: Activity at adenosine A2A receptor at 10 uM
Chain of Adenosine receptor A2a (Homo sapiens) (P29274 whole entry): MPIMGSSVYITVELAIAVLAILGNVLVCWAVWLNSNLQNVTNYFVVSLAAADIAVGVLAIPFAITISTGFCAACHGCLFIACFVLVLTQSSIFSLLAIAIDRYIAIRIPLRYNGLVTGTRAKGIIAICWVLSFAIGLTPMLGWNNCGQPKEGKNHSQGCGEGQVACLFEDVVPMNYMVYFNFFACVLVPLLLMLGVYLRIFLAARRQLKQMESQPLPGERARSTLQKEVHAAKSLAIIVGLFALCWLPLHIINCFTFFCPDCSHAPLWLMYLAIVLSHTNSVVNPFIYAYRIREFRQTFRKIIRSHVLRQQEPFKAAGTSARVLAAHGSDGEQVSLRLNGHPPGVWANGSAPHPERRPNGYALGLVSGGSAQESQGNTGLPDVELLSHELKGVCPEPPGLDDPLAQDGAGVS

Cytochrome P450 2C9 = Cytochrome P450 2C9 (Homo sapiens, UniProt P11712); test: Inhibition of CYP2C9 up to 50 uM; assay type: ADME
Chain of Cytochrome P450 2C9 (P11712 whole entry): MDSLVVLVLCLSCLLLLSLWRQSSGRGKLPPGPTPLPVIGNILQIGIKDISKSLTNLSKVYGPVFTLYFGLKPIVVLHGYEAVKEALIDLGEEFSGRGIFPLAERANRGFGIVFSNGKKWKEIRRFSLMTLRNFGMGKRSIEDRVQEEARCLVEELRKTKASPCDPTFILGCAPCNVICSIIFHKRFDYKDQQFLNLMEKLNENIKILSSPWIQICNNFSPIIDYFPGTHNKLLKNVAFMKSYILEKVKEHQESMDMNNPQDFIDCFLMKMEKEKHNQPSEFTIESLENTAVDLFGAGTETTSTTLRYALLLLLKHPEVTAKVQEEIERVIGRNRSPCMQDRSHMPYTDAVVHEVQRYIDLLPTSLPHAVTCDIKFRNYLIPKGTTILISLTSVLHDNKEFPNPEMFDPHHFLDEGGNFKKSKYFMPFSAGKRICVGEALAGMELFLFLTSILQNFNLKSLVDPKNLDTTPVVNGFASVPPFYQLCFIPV

[19] = Clearance in rat at 2 mg/kg, iv; assay type: ADME, organism-based; set-up: dose 2 mg/kg, route intravenous; conditions: in vivo
[20] = Drug level in rat brain at 30 mg/kg, po measured at 30 mins post dose; assay type: ADME, organism-based; set-up: dose 30 mg/kg, route oral; conditions: read-out: Drug uptake
[21] = Oral bioavailability in rat at 30 mg/kg, po after 30 mins; assay type: ADME, organism-based; conditions: in vivo
[22] = Drug level in rat CSF at 30 mg/kg, po measured at 30 mins post dose; assay type: ADME, organism-based, Cerebrospinal fluid; set-up: dose 30 mg/kg, route oral; conditions: read-out: Drug uptake
Rattus norvegicus [23] = species: Rattus norvegicus; test: Hepatic blood flow in rat; assay type: ADME, organism-based, Liver
[24] = molecular target: T3, Metabotropic glutamate receptor 5; test: Positive allosteric modulation of human mGluR5 expressed in CHO-K1 cells; assay type: cell-based
[25] = Metabolic stability in human microsomes; assay type: ADME, Microsome
Cytochrome P450 2C19 = Cytochrome P450 2C19 (Homo sapiens, UniProt P33261); test: Inhibition of CYP2C19 up to 50 uM; assay type: ADME
[26] = Drug level in rat plasma at 30 mg/kg, po measured at 30 mins post dose; assay type: ADME, organism-based; set-up: dose 30 mg/kg, route oral; conditions: read-out: Drug uptake

T1 sequence (Q14833 whole entry): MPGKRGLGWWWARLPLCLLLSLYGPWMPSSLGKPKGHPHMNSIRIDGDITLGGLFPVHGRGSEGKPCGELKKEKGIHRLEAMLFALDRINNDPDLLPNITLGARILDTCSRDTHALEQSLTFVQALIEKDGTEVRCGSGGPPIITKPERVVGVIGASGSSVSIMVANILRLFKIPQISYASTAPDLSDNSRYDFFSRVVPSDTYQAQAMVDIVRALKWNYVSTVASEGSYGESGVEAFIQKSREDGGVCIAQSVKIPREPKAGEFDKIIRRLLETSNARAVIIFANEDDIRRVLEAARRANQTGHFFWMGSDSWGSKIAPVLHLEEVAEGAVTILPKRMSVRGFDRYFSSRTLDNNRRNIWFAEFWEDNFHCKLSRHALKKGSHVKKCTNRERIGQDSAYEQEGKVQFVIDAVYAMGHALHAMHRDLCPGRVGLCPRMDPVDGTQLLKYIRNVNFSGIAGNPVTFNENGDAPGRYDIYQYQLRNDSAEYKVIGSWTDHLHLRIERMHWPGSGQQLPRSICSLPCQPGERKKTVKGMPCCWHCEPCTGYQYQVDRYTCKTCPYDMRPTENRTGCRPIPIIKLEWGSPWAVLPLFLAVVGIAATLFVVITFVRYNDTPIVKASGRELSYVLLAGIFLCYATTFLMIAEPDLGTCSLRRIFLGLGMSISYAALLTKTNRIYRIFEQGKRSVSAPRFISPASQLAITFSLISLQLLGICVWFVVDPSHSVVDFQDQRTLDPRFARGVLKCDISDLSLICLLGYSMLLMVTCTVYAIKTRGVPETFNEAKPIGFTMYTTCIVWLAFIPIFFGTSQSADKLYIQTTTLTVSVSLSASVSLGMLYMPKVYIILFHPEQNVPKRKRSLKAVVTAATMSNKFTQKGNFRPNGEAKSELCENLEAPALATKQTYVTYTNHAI

SMILES: Nc1nc(/C=C/c2ccccc2)cc(C(F)(F)F)n1
- Emax [1]: 95%
- EC50 [2]: 0.6 µM

SMILES: CNc1nccc(/C=C/c2ccccc2)n1
- EC50 [2]: > 30 µM

SMILES: Nc1nccc(/C=C/c2cccs2)n1
- Emax [1]: 98%
- EC50 [2]: 4.1 µM

SMILES: Nc1nccc(C#Cc2ccccc2)n1
- Emax [1]: 86%
- EC50 [2]: 20 µM

SMILES: Nc1nccc(CCc2ccccc2)n1
- EC50 [2]: > 30 µM

SMILES: Nc1nccc(/C=C/c2ccncc2)n1
- EC50 [2]: > 30 µM

SMILES: N#Cc1ccc(/C=C/c2ccnc(N)n2)cc1
- EC50 [2]: > 30 µM

SMILES: Cc1nccc(/C=C/c2ccccc2)n1
- Emax [1]: 67%
- EC50 [2]: 6.9 µM

SMILES: Nc1nccc(/C=C/c2ccc(F)cc2)n1
- Emax [1]: 106%
- EC50 [2]: 4.5 µM

SMILES: Nc1ncc(Br)c(/C=C/c2ccccc2)n1
- Emax [1]: 94%
- EC50 [2]: 1.3 µM

SMILES: Nc1nccc(/C=C/c2ccco2)n1
- Emax [1]: 94%
- EC50 [2]: 9.4 µM

SMILES: Nc1cncc(/C=C/c2ccccc2)n1
- Emax [1]: 72%
- EC50 [2]: 15.8 µM

SMILES: Cc1ccccc1/C=C/c1ccnc(N)n1
- EC50 [2]: > 30 µM

SMILES: Nc1nccc(/C=C/c2cccnc2)n1
- Emax [1]: 55%
- EC50 [2]: 16.4 µM

SMILES: Nc1nccc(-c2ccc3ccccc3c2)n1
- EC50 [2]: > 30 µM

SMILES: Nc1nccc(-c2cc3ccccc3s2)n1
- EC50 [2]: > 30 µM

SMILES: CN(C)c1nccc(/C=C/c2ccccc2)n1
- EC50 [2]: > 30 µM

SMILES: CS(=O)(=O)Nc1nccc(/C=C/c2ccccc2)n1
- EC50 [2]: > 30 µM

SMILES: CCOC(=O)C(=O)Nc1nccc(/C=C/c2ccccc2)n1
- Emax [1]: 82%
- EC50 [2]: 5 µM

SMILES: Cc1nc(N)nc(/C=C/c2ccccc2)c1C
- Emax [1]: 88%
- EC50 [2]: 1.6 µM

SMILES: COc1cc(/C=C/c2ccccc2)nc(N)n1
- Emax [1]: 106%
- EC50 [2]: 2 µM

SMILES: Nc1ncc([C@@H]2C[C@H]2c2ccccc2)cn1
- EC50 [2]: > 30 µM

SMILES: Nc1nccc(/C=C/c2ccccc2)n1
- Activity [3]: > 50%
- inhibition (INH) (Cytochrome P450 2D6): Not Active
- Papp B→A [4]: 19.6 ×10⁻⁶ cm/s
- EC50 [5]: 1 µM
- Activity (Rattus norvegicus [6]): Dose-dependent effect
- inhibition (Rattus norvegicus [6]): Dose-dependent effect
- fraction unbound [7]: 0.1
- QH (Homo sapiens): 83%
- IC50 [8]: > 30 µM
- Activity [9]: > 50%
- MRT [10]: 36 min
- Vd [11]: 2.7 L/kg
- EC50 [12]: > 30 µM
- inhibition (INH) (Cytochrome P450 3A4): Not Active
- Papp A→B [13]: 41.9 ×10⁻⁶ cm/s
- Kp at 0.5 h [14]: 2.9
- IC50 [15]: > 10 µM
- Stability [16]: 62%
- EC50 [17]: > 10 µM
- Activity [18]: > 50%
- Emax [1]: 106%
- inhibition (INH) (Cytochrome P450 2C9): Not Active
- clearance [19]: 75 mL/min/kg
- EC50 [2]: 1 µM
- concentration at 0.5 h [20]: 33.8 µM
- bioavailability [21]: 51%
- concentration at 0.5 h [22]: 0.7 µM
- QH (Rattus norvegicus [23]): 83%
- EC50 [24]: > 10 µM
- Stability [25]: 62%
- inhibition (INH) (Cytochrome P450 2C19): Not Active
- concentration at 0.5 h [26]: 11.6 µM

SMILES: Nc1nccc(-c2cc3ccccc3o2)n1
- Emax [1]: 58%
- EC50 [2]: 4.9 µM

SMILES: Nc1nccc(/C=C/c2ccccc2F)n1
- Emax [1]: 101%
- EC50 [2]: 2.9 µM

SMILES: Nc1nccc(/C=C/c2ccccn2)n1
- Emax [1]: 92%
- EC50 [2]: 11.7 µM

SMILES: C(=C\c1ccnc(-c2ccccc2)n1)/c1ccccc1
- EC50 [2]: > 30 µM

SMILES: Nc1cc(/C=C/c2ccccc2)nc(N)n1
- EC50 [2]: > 30 µM

SMILES: Nc1nccc(/C=C/c2cccc(F)c2)n1
- Emax [1]: 99%
- EC50 [2]: 4.5 µM

SMILES: Sc1nccc(/C=C/c2ccccc2)n1
- Emax [1]: 115%
- EC50 [2]: 7.8 µM

SMILES: Cc1cccc(/C=C/c2ccnc(N)n2)c1
- EC50 [2]: > 30 µM

SMILES: N#Cc1ccccc1/C=C/c1ccnc(N)n1
- EC50 [2]: > 30 µM

SMILES: Nc1ncc(Cl)c(/C=C/c2ccccc2)n1
- Emax [1]: 102%
- EC50 [2]: 1.6 µM

SMILES: Cc1cc(/C=C/c2ccccc2)nc(N)n1
- Emax [1]: 99%
- EC50 [2]: 0.8 µM

SMILES: Cc1ccc(/C=C/c2ccnc(N)n2)cc1
- EC50 [2]: > 30 µM

SMILES: Cc1cnc(N)nc1/C=C/c1ccccc1
- Emax [1]: 94%
- EC50 [2]: 0.2 µM

SMILES: N#Cc1cccc(/C=C/c2ccnc(N)n2)c1
- EC50 [2]: > 30 µM

SMILES: Nc1nc(O)cc(/C=C/c2ccccc2)n1
- EC50 [2]: > 30 µM

SMILES: Nc1cccc(/C=C/c2ccccc2)n1
- Emax [1]: 92%
- EC50 [2]: 5.8 µM

Source: ChEMBL document CHEMBL1208783, “An orally bioavailable positive allosteric modulator of the mGlu4 receptor with efficacy in an animal model of motor dysfunction” (Bioorg Med Chem Lett, 2010)
